pIC50: −log10 of the molar value.

For the assay, the target named is T1, Recombinant human cathepsin A (Homo sapiens, UniProt P10619).
T1 construct: Recombinant human cathepsin A (residues 29-480, with a C-terminal 10-His tag); 10-His (C); purchased R&D Systems 1049-SE
T1 sequence (P10619 29-326 limits assumed): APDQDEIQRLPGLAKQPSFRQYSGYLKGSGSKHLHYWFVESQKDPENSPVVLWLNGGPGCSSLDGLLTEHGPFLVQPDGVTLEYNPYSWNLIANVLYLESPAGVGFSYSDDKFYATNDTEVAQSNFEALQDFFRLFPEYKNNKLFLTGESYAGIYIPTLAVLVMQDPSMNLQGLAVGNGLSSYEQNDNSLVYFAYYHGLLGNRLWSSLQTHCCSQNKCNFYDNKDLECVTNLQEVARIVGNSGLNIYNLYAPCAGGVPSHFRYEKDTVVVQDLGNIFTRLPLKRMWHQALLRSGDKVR
T1 sequence (P10619 327-480 limits assumed): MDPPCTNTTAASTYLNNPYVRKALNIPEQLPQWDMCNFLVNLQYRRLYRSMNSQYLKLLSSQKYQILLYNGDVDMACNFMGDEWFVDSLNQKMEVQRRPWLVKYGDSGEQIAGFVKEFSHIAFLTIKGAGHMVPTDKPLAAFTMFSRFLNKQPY
The assay is described as follows: Cathepsin A inhibitory activity. The class given is biochemical. Conditions: activated recombinant human cathepsin A 833 ng/ml, Bodipy FL-labeled bradykinin substrate 2 μM, pH 5.5, room temperature. As for the experimental part: a) Cathepsin A Inhibitory Activity
Recombinant human cathepsin A (residues 29-480, with a C-terminal 10-His tag; R&D Systems, #1049-SE) was proteolytically activated with recombinant human cathepsin L (R&D Systems, #952-CY). Briefly, cathepsin A was incubated at 10 μg/ml with cathepsin L at 1 μg/ml in activation buffer (25 mM 2-(morpholin-4-yl)-ethanesulfonic acid (MES), pH 6.0, containing 5 mM dithiothreitol (DTT)) for 15 min at 37° C. Cathepsin L activity was then stopped by the addition of the cysteine protease inhibitor E-64 (N-(trans-epoxysuccinyl)-L-leucine-4-guanidinobutylamide; Sigma-Aldrich, # E3132; dissolved in activation buffer/DMSO) to a final concentration of 10 μM.
The activated cathepsin A was diluted in assay buffer (25 mM MES, pH 5.5, containing 5 mM DTT) and mixed with the test compound (dissolved in assay buffer containing (v/v) 3% DMSO) or, in the control experiments, with the vehicle in a multiple assay plate. After incubation for 15 min at room temperature, as substrate then bradykinin carrying an N-terminal ®Bodipy FL (4,4-difluoro-5,7-dimethyl-4-bora-3a,4a-diaza-s-indacene-3-propionyl) label (JPT Peptide Technologies GmbH; dissolved in assay buffer) was added to the mixture. The final concentration of cathepsin A was 833 ng/ml and the final concentration of labeled bradykinin 2 μM. After incubation for 15 min at room temperature the reaction was stopped by the addition of stop buffer (130 mM 2-(4-(2-hydroxy-ethyl)-piperazin-1-yl)-ethanesulfonic acid, pH 7.4, containing (v/v) 0.013% ®Triton X-100, 0.13% Coating Reagent 3 (Caliper Life Sciences), 6.5% DMSO and 20 μM ebelactone B (Sigma, # E0886)).
Uncleaved substrate and product were then separated by a microfluidic capillary electrophoresis on a LabChip® 3000 Drug Discovery System (12-Sipper-Chip; Caliper Life Sciences) and quantified by determination of the respective peak areas. Substrate turnover was calculated by dividing product peak area by the sum of substrate and product peak areas, and the enzyme activity and the inhibitory effect of the test compound thus quantified. From the percentage of inhibition of cathepsin A activity observed with the test compound at several concentrations, the inhibitory concentration IC50, i.e. the concentration which effects 50% inhibition of enzyme activity was, calculated.
For orientation: pIC50 means the negative decadic logarithm of the IC50, by convention in mol/L. For the molecule `O=C(O)CC(Cc1ccccc1)NC(=O)c1csc(-c2ccccc2Cl)n1` (centres unmarked) [Example 120, 3-{[2-(2-Chloro-phenyl)-thiazole-4-carbonyl]-amino}-4-phenyl-butyric acid], the pIC50 is 5.84.

As for `O=C(O)C[C@H](NC(=O)c1nc(-c2ccccc2)cs1)c1cccc(Cl)c1` [Example 65, (S)-3-(3-Chloro-phenyl)-3-[(4-phenyl-thiazole-2-carbonyl)-amino]-propionic acid], the pIC50 was 6.04.

In the case of `O=C(O)C[C@H](NC(=O)c1csc(-c2ccccc2Cl)n1)c1ccccc1C(F)(F)F` [Example 77, (S)-3-{[2-(2-Chloro-phenyl)-thiazole-4-carbonyl]-amino}-3-(2-trifluoromethyl-phenyl)-propionic acid], the negative logarithm of the IC50 (pIC50) is 6.15.

In the case of `O=C(O)C[C@H](NC(=O)c1csc(-c2ccccc2Cl)n1)c1ccc(Cl)cc1Cl` [Example 75, (S)-3-{[2-(2-Chloro-phenyl)-thiazole-4-carbonyl]-amino}-3-(2,4-dichloro-phenyl)-propionic acid], the pIC50 is 6.54.

`O=C(O)C[C@H](NC(=O)c1csc(-c2cccc(Cl)c2Cl)n1)c1cccc(F)c1` [Example 67, (S)-3-{[2-(2,3-Dichloro-phenyl)-thiazole-4-carbonyl]-amino}-3-(3-fluoro-phenyl)-propionic acid]: the pIC50 was 6.60.

Consider `O=C(O)C[C@H](NC(=O)c1csc(-c2cccc(Cl)c2Cl)n1)c1cccc(Cl)c1Cl` [Example 14, (S)-3-(2,3-Dichloro-phenyl)-3-{[2-(2,3-dichloro-phenyl)-thiazole-4-carbonyl]-amino}-propionic acid], for which the negative-log IC50 (pIC50) is 6.80.

With `Cc1ccccc1[C@H](CC(=O)O)NC(=O)c1csc(-c2ccc(Cl)cc2)n1` [Example 109, (S)-3-{[2-(4-Chloro-phenyl)-thiazole-4-carbonyl]-amino}-3-o-tolyl-propionic acid], the pIC50 is 6.92.

On to `O=C(O)C[C@H](NC(=O)c1csc(-c2ccccc2F)n1)c1ccc(Cl)cc1Cl` [Example 24, (S)-3-(2,4-Dichloro-phenyl)-3-{[2-(2-fluoro-phenyl)-thiazole-4-carbonyl]-amino}-propionic acid], for which the negative logarithm of the IC50 (pIC50) was 5.97.

As for `O=C(N[C@@H](Cc1ccc(Cl)cc1)C(=O)O)c1csc(-c2ccc(C(F)(F)F)cc2)n1` [Example 107, (S)-3-(4-Chloro-phenyl)-2-{[2-(4-trifluoromethyl-phenyl)-thiazole-4-carbonyl]-amino}-propionic acid], the pIC50 was 5.43.

With `O=C(O)C[C@H](NC(=O)c1csc(-c2cccc(Cl)c2)n1)c1ccc(Cl)cc1Cl` [Example 91, (S)-3-{[2-(3-Chloro-phenyl)-thiazole-4-carbonyl]-amino}-3-(2,4-dichloro-phenyl)-propionic acid], the pIC50 was 5.72.

Regarding `O=C(O)CC(Cc1ccccc1)NC(=O)c1csc(-c2ccc(C(F)(F)F)cc2)n1` (centres unmarked) [Example 135, 4-Phenyl-3-{[2-(4-trifluoromethyl-phenyl)-thiazole-4-carbonyl]-amino}-butyric acid], the pIC50 is 4.65.

`O=C(O)C[C@H](NC(=O)c1csc(-c2ccccc2Cl)n1)c1cccc(F)c1` [Example 78, (S)-3-{[2-(2-Chloro-phenyl)-thiazole-4-carbonyl]-amino}-3-(3-fluoro-phenyl)-propionic acid]: the pIC50 was 6.59.

In the case of `O=C(O)CC(NC(=O)c1csc(-c2ccc(Cl)cc2)n1)C1CCCCC1` (centres unmarked) [Example 126, 3-{[2-(4-Chloro-phenyl)-thiazole-4-carbonyl]-amino}-3-cyclohexyl-propionic acid], the negative-log IC50 (pIC50) is 5.40.

Consider `Cc1cccc([C@H](CC(=O)O)NC(=O)c2nc(-c3ccccc3)cs2)c1` [Example 3, (S)-3-[(4-Phenyl-thiazole-2-carbonyl)-amino]-3-m-tolyl-propionic acid], for which the pIC50 was 6.50.

As to `O=C(O)C[C@H](NC(=O)c1csc(-c2ccccc2Cl)n1)c1cccc(Cl)c1Cl` [Example 73, (S)-3-{[2-(2-Chloro-phenyl)-thiazole-4-carbonyl]-amino}-3-(2,3-dichloro-phenyl)-propionic acid], the pIC50 is 7.15.

Turning to `O=C(O)C[C@H](NC(=O)c1nc(-c2ccccc2)cs1)c1cccc(Cl)c1Cl` [Example 95, (S)-3-(2,3-Dichloro-phenyl)-3-[(4-phenyl-thiazole-2-carbonyl)-amino]-propionic acid], the pIC50 was 7.42.

As to `Cc1ccccc1-c1nc(C(=O)N[C@@H](CC(=O)O)c2ccccc2C(F)(F)F)cs1` [Example 61, (S)-3-[(2-o-Tolyl-thiazole-4-carbonyl)-amino]-3-(2-trifluoromethyl-phenyl)-propionic acid], the pIC50 was 6.17.

Regarding `Cc1ccc(-c2nc(C)c(C(=O)N[C@@H](CC(=O)O)c3ccccc3C)s2)cc1` [Example 70, (S)-3-[(4-Methyl-2-p-tolyl-thiazole-5-carbonyl)-amino]-3-o-tolyl-propionic acid], the pIC50 is under 5.00.

In the case of `O=C(O)CC(Cc1ccccc1)NC(=O)c1csc(-c2ccccc2F)n1` (centres unmarked) [Example 122, 3-{[2-(2-Fluoro-phenyl)-thiazole-4-carbonyl]-amino}-4-phenyl-butyric acid], the negative-log IC50 (pIC50) was 5.35.

Regarding `COc1cccc([C@H](CC(=O)O)NC(=O)c2csc(-c3ccc(Cl)cc3)n2)c1OC` [Example 101, (S)-3-{[2-(4-Chloro-phenyl)-thiazole-4-carbonyl]-amino}-3-(2,3-dimethoxy-phenyl)-propionic acid], the negative logarithm of the IC50 (pIC50) is 5.95.

Take `COc1cccc([C@H](CC(=O)O)NC(=O)c2csc(-c3ccccc3Cl)n2)c1OC` [Example 74, (S)-3-{[2-(2-Chloro-phenyl)-thiazole-4-carbonyl]-amino}-3-(2,3-dimethoxy-phenyl)-propionic acid]: the negative-log IC50 (pIC50) was 6.95.

Turning to `O=C(O)C[C@H](NC(=O)c1nc(-c2ccccc2)cs1)c1cccc(C(F)(F)F)c1` [Example 99, (S)-3-[(4-Phenyl-thiazole-2-carbonyl)-amino]-3-(3-trifluoromethyl-phenyl)-propionic acid], the negative logarithm of the IC50 (pIC50) was 5.48.

Consider `COc1cccc([C@H](CC(=O)O)NC(=O)c2csc(-c3cccc(Cl)c3)n2)c1OC` [Example 90, (S)-3-{[2-(3-Chloro-phenyl)-thiazole-4-carbonyl]-amino}-3-(2,3-dimethoxy-phenyl)-propionic acid], for which the pIC50 is 5.86.

For `O=C(O)C[C@H](NC(=O)c1csc(-c2ccc(Cl)cc2)n1)c1ccccc1C(F)(F)F` [Example 104, (S)-3-{[2-(4-Chloro-phenyl)-thiazole-4-carbonyl]-amino}-3-(2-trifluoromethyl-phenyl)-propionic acid], the negative-log IC50 (pIC50) was 5.27.

For the molecule `O=C(O)C[C@H](NC(=O)c1csc(-c2cccc(Cl)c2Cl)n1)c1ccc(Cl)cc1Cl` [Example 23, (S)-3-(2,4-Dichloro-phenyl)-3-{[2-(2,3-dichloro-phenyl)-thiazole-4-carbonyl]-amino}-propionic acid], the pIC50 was 6.26.

Take `COc1ccc(-c2nc(C(=O)N[C@@H](CC(=O)O)c3ccccc3C)cs2)cc1` [Example 5, (S)-3-{[2-(4-Methoxy-phenyl)-thiazole-4-carbonyl]-amino}-3-o-tolyl-propionic acid]: the pIC50 was 6.43.

Take `O=C(O)CC(NC(=O)c1csc(-c2ccccc2)n1)c1ccc(-c2ccc(F)cc2)cc1` (centres unmarked) [Example 2, 3-(4′-Fluoro-biphenyl-4-yl)-3-[(2-phenyl-thiazole-4-carbonyl)-amino]-propionic acid]: the negative logarithm of the IC50 (pIC50) is under 5.00.

`O=C(O)C[C@H](NC(=O)c1csc(-c2ccccc2)n1)c1ccc(Cl)cc1Cl` [Example 22, (S)-3-(2,4-Dichloro-phenyl)-3-[(2-phenyl-thiazole-4-carbonyl)-amino]-propionic acid]: the pIC50 is 6.26.

In the case of `Cc1ccc([C@H](CC(=O)O)NC(=O)c2nc(-c3ccccc3)cs2)cc1` [Example 11, (S)-3-[(4-Phenyl-thiazole-2-carbonyl)-amino]-3-p-tolyl-propionic acid], the pIC50 is 6.39.

Source of the values: patent US9174952B2, “Substituted 3-thiazoloamino-propionic acid derivatives and their use as pharmaceuticals” (SANOFI, priority 2011, dated 2015).
